Experimental data from patent US20250074946A1, “USE OF SE-DR AFFINITY PEPTIDE IN PREPARING DRUG FOR TREATING RHEUMATIC DISEASE” (HEBEI FITNESS BIOTECHNOLOGY CO., LTD., priority 2021, published 2025).
Where no end group is shown, it is not given here.

Columns and labels:
[1] = test system: CIA mice infected with chronic hepatitis B; assay: CIA mice infected with chronic hepatitis B (Example 8); assay type: in vivo, mouse
Method in brief: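 DBA/1 mice given rAAV8-1.3HBV (1×10^12 vg/mL) i.v.; 2 days later immunised intradermally with bovine CII/CFA (100 μg collagen), boosted i.p. at day 21 with CII/IFA. Randomised at paw score 1; drugs i.v. every other day for 27 days. Paw inflammation scores, serum viral and liver-function markers measured.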

CIA mice = assay type: in vivo, mouse
Protocol: Male DBA/1 mice were used to establish CIA model. Methods: Mice were immunized by intradermally injecting an emulsion of bovine C II and CFA (containing 100 μg collagen) at the tail head. After 21 days, the mice were boosted once by intraperitoneally injecting an emulsion of bovine C II and IFA (containing 100 μg collagen). […] Another 10 female DBA/1 mice were not subjected to model establishment and set as the control group. PBS was administrated to both the model group and the control group. Corresponding drugs were administrated to the mice in each group by tail vein injection at the volume of 10 mL/kg, once every other day, for 28 consecutive days, followed by a recovery period of 28 days. The inflammation score of the four paws of the mice in each group was evaluated during the administration (once every other day), and the area under the curve (AUC) of the inflammation score was calculated during the administration. During drug discontinuation, the inflammation scores of the four paws of the […] in each group were continuously evaluated (once every other day), and the rats were sacrificed on day 28 after drug discontinuation. HE staining was performed on the ankle joint for tissue injury evaluation. The specific scoring criteria were as follows: 0=normal synovial tissue; 1=synovial hyperplasia and inflammatory cell infiltration; 2=pannus formation and cartilage erosion; 3=destruction of most of the cartilage with subchondral bone erosion; 4=loss of joint integrity, ankylosis.

FKGEQAGAGE [APL2]
ALT level ([1]; at sacrifice, day 28): 45.88 ± 19.74 U/L
Hepatitis B activation rate (Ratio of ALT > 100 U/L) ([1]; at sacrifice, day 28): 0%
Observation on the daily condition of mice ([1]; during administration): No abnormality
Inflammation score and area under the time curve (AUC) ([1]; peptides 50 μmol, Abatacept 100 μg, tail i.v. once every other day for 27 days): 89.86 ± 46.14
inflammation score during drug discontinuation compared with that at the time of drug discontinuation (CIA mice; 28 days of observation after stopping at day 28): could maintain the therapeutic effect
Pathological score during 28 days of drug discontinuation (CIA mice; HE staining of ankle joint, score 0-4): 2.05 ± 0.87
AUC, during drug discontinuation (day 29-56) (CIA mice; inflammation score AUC after stopping administration at day 28): 87.55 ± 40.08
Incidence of infection in mice (CIA mice; mouse, in vivo): 0%
Observation on the daily state of mice (CIA mice; mouse, in vivo): No
